Experimental data from patent US8580788B2, “Opioid antagonists” (Adolor Corporation, priority 2005, dated 2013).

Experiments:
[1] = molecular target: cloned human κ opioid receptor (Homo sapiens (Human), UniProt P41145); assay: [3H]diprenorphine receptor binding, κ opioid receptor; settings: inhibition of [3H]diprenorphine binding; Cheng-Prusoff correction of IC50
Experimental: (§1) IC50 values were obtained by nonlinear analysis of the data using GraphPad Prism version 3.00 for Windows (GraphPad Software, San Diego). Ki values were obtained by Cheng-Prusoff corrections of IC50 values.
(§2) The receptor binding method (DeHaven and DeHaven-Hudkins, 1998) was a modification of the method of Raynor et al. (1994). After dilution in buffer A and homogenization as before, membrane proteins (10-80 μg) in 250 μL were added to mixtures containing test compound and [^3H]diprenorphine (0.5 to 1.0 nM, 40,000 to 50,000 dpm) in 250 μL of buffer A in 96-well deep-well polystyrene titer plates (Beckman). After incubation at room temperature for one hour, the samples were filtered through GF/B filters that had been presoaked in a solution of 0.5% (w/v) polyethylenimine and 0.1% (w/v) bovine serum albumin in water. The filters were rinsed 4 times with 1 mL of cold 50 mM Tris HCl, pH 7.8 and radioactivity remaining on the filters determined by scintillation spectroscopy. Nonspecific binding was determined by the minimum values of the titration curves and was confirmed by separate assay wells containing 10 μM naloxone.
(§3) To determine the equilibrium dissociation constant for the inhibitors (Ki), radioligand bound (cpm) in the presence of various concentrations of test compounds was measured. The concentration to give half-maximal inhibition (EC50) of radioligand binding was determined from a best nonlinear regression fit to the following equation,
(§4) [formula] where Y is the amount of radioligand bound at each concentration of test compound, Bottom is the calculated amount of radioligand bound in the presence of an infinite concentration of test compound, Top is the calculated amount of radioligand bound in the absence of test compound, X is the logarithm of the concentration of test compound, and LogEC50 is the log of the concentration of test compound where the amount of radioligand bound is half-way between Top and Bottom. The nonlinear regression fit was performed using the program Prism® (GraphPad Software, San Diego, Calif.). The Ki values were then determined from the EC50 values by the following equation,
(§5) [formula] where [ligand] is the concentration of radioligand and Kd is the equilibrium dissociation constant for the radioligand.

[2] = molecular target: T1, cloned human μ opioid receptor (Homo sapiens (Human), UniProt P35372); assay: inhibition of agonist-stimulated [35S]GTPγS binding (in vitro antagonist activity), μ opioid receptor; type: biochemical; settings: inhibition of loperamide (EC80)-stimulated [35S]GTPγS binding to membranes
T1 sequence (P35372 whole entry): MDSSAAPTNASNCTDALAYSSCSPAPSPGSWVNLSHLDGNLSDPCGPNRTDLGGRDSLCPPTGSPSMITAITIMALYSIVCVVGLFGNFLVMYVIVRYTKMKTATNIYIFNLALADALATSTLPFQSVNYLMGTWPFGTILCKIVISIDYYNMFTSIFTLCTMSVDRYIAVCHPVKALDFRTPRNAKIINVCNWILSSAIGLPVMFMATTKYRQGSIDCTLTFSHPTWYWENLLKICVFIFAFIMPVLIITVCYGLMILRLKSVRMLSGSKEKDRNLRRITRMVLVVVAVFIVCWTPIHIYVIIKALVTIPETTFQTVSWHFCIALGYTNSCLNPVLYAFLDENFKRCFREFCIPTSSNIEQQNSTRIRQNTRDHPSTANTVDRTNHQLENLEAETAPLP
Experimental: The potencies of the antagonists were assessed by their abilities to inhibit agonist-stimulated [^35S]GTPγS binding to membranes containing the cloned human μ, κ, or δ opioid receptors. The agonists used were loperamide for the μ opioid receptor.
To determine the IC50 value, which was the concentration to give half-maximal inhibition of agonist-stimulated [^35S]GTPγS binding, the amount of [^35S]GTPγS bound in the presence of a fixed concentration of agonist and various concentrations of antagonist was measured. The fixed concentration of agonist was the EC80 for the agonist, which was the concentration to give 80% of the relative maximum stimulation of [^35S]GTPγS binding. The IC50 value was determined from a best nonlinear regression fit of the data to the following equation,
[formula] where Y is the amount of [^35S]GTPγS bound at each concentration of antagonist, Bottom is the calculated amount of [^35S]GTPγS bound in the presence of an infinite concentration of antagonist, Top is the calculated amount of [^35S]GTPγS bound in the absence of added antagonist, X is the logarithm of the concentration of antagonist, and LogIC50 is the logarithm of the concentration of antagonist where the amount of [^35S]GTPγS bound is halfway between Bottom and Top. The nonlinear regression fit was performed using GraphPad Prism® version 3.00 for Windows (GraphPad Software, San Diego, Calif.).

[3] = molecular target: cloned human δ opioid receptor (Homo sapiens (Human), UniProt P41143); assay: [3H]diprenorphine receptor binding, δ opioid receptor; settings: inhibition of [3H]diprenorphine binding; Cheng-Prusoff correction of IC50
Sequence of cloned human δ opioid receptor (P41143 whole entry): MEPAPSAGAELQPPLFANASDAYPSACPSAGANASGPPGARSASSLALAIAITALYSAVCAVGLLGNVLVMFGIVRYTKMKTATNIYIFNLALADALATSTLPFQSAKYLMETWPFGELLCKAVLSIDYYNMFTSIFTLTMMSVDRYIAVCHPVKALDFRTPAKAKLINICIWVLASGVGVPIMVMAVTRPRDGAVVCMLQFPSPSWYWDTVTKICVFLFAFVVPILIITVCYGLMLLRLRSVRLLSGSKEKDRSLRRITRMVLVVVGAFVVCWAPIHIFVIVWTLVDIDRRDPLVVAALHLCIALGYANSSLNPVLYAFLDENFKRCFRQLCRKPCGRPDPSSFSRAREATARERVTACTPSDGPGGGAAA
Experimental: as §1, §2, §3, §4, §5

[4] = molecular target: T1, cloned human μ opioid receptor; assay: [3H]diprenorphine receptor binding, μ opioid receptor; settings: inhibition of [3H]diprenorphine binding; Cheng-Prusoff correction of IC50
Experimental: as §1, §2, §3, §4, §5

Sequence of cloned human κ opioid receptor (P41145 whole entry): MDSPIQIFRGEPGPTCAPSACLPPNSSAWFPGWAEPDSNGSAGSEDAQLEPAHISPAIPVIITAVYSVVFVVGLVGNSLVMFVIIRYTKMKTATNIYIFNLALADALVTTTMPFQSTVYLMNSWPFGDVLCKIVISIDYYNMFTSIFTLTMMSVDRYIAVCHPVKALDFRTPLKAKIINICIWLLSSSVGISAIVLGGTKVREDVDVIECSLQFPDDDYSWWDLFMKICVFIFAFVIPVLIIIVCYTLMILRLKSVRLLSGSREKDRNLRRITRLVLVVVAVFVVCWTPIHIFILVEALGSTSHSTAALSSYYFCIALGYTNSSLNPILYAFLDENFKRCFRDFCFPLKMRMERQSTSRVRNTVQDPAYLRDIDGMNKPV

Row | Compound | Ki [1] | IC50 [2] | Ki [3] | Ki [4]
1 | C[C@H]1CN2C[C@H](Cc3ccccc3)NC[C@H]2C[C@@]1(C)c1cccc(O)c1 [Example 4, 3-((3S,7R,8R,9αR)-3-benzyl-7,8-dimethyl-octahydro-1H-pyrido[1,2-α]pyrazin-8-yl)phenol] | 85 nM | 29 nM | 36 nM | 8.9 nM
2 | C[C@H]1CN2CCN(CCc3ccccc3)C[C@H]2C[C@@]1(C)c1cccc(O)c1 [Example 2B, 3-((7R,8R,9αR)-7,8-dimethyl-2-phenethyl-octahydro-1H-pyrido[1,2-α]pyrazin-8-yl)phenol] | 112 nM | 21 nM | 242 nM | –
3 | C[C@H]1CN2C[C@H](c3ccccc3)N(C)C[C@H]2C[C@@]1(C)c1cccc(O)c1 [Example 3B, 3-((3S,7R,8R,9αR)-2,7,8-trimethyl-3-phenyl-octahydro-1H-pyrido[1,2-α]pyrazin-8-yl)phenol] | 12 nM | 26 nM | 716 nM | 3.3 nM
4 | C[C@H]1CN2C[C@H](c3ccccc3)CC[C@H]2C[C@@]1(C)c1cccc(O)c1 [Example 1, 3-((2R,3R,7S,9αS)-2,3-dimethyl-7-phenyl-octahydro-1H-quinolizin-2-yl)phenol] | 8.9 nM | 0.53 nM | 30 nM | 0.57 nM
5 | C[C@H]1CN2CCN(Cc3ccccc3)C[C@H]2C[C@@]1(C)c1cccc(O)c1 [Example 2D, 3-((7R,8R,9αR)-2-benzyl-7,8-dimethyl-octahydro-1H-pyrido[1,2-α]pyrazin-8-yl)phenol] | 44 nM | 11 nM | 139 nM | 1.1 nM
6 | C[C@H]1CN2C[C@H](c3ccccc3)NC[C@H]2C[C@@]1(C)c1cccc(O)c1 [Example 3A, 3-((3S,7R,8R,9αR)-7,8-dimethyl-3-phenyl-octahydro-1H-pyrido[1,2-α]pyrazin-8-yl)phenol] | 18 nM | 12 nM | 88 nM | 3.6 nM
7 | C[C@H]1CN2CCN(C(=O)c3ccccc3)C[C@H]2C[C@@]1(C)c1cccc(O)c1 [Example 2C, ((7R,8R,9αR)-8-(3-hydroxyphenyl)-7,8-dimethyl-hexahydro-1H-pyrido[1,2-α]pyrazin-2(6H)-yl)(phenyl)methanone] | 190 nM | 21 nM | 25 nM | 2 nM
